Results from patent US20240269287A1, “MICROBUBBLE-ASSISTED ULTRASOUND-GUIDED THERAPY” (THE BOARD OF REGENTS OF THE UNIVERSITY OF TEXAS SYSTEM, priority 2021, published 2024).

Experiments:
BMDMs = format: cell-based, mouse
Description: Mouse bone marrow-derived macrophages (BMDMs) were isolated from the hind leg femur bone marrow of C57BL/6J mice and were cultured or activated with macrophage colony-stimulating factor (M-CSF, 50 ng ml-1) according to standardized procedures. The purity of the induced cells was assessed by flow cytometry for CD45+CD11b+ cells.
One day before treatment, cells were plated at 400,000 cells/well in a 12 well plate. […] […] Plates were flipped upside down and left to incubate for 10 min at 37° C. Cells were diluted to 2.5 mL with PFB-saturated RPMI, placed on top of a water bath set to 37° C., then sonoporated at 1 MHz, with 1 W/cm^2 power density, 20% duty cycle (DC) for 60 seconds (SONITRON® GTS, 15 mm diameter). Fluorescence microscopy images were taken at different time points (0, 3, 6, 12, 24, and 48 h).

[1] = tested on: EO771 orthotopic breast tumors; assay: Tumor growth and survival; format: in vivo, mouse; details: wild type mice, three intratumoral treatments every other day, 100 μg cGAMP
Description: Orthotopic mammary fat pad tumors were established as in Example 9. […] The mice were injected intratumorally with 20 μL of solution infused at 1 μL/second using a syringe pump. […] The mice were treated every other day for a total of three treatments (days 13, 15, and 17). US, where part of the treatment group, was applied by using acoustic coupling gel and a 1-MHz plane wave transducer operating at 4 W/cm^2 for 60 seconds and a 50% duty cycle given to opposite sides of the tumor for a total treatment time of 120 seconds. At 18 days post tumor inoculation treated mice were sacrificed.
Tumor sizes were measured every two days using digital calipers, and tumor volume was calculated according to an ellipsoid formula as 0.5×length×width^2. Mice were sacrificed if any tumor ulceration was observed or if tumors reached 2000 mm^3 in volume. The final tumor volume comparison between the MUSIC and control groups was done when the first mice from a control group was sacrificed. […] Statistical analysis was done using an unpaired t-test for tumor sizes and Log-rank test for survival curves.

STING pathway in BMDMs = assay: STING signaling after treatment (qRT-PCR, ELISA, western blot, immunostaining); format: cell-based, mouse
Description: Mouse BMDMs and human THP-1 cells were cultured as described above.

## 2′-O-(6-[DY547]-aminohexylcarbamoyl)-cyclic diguanosine monophosphate [diGMP only]
BMDMs
  uptake of diGMP (fluorescence microscopy): weak uptake

## Nc1nc2c(ncn2[C@@H]2O[C@@H]3COP(=O)(O)O[C@H]4[C@@H](O)[C@H](n5cnc6c(N)ncnc65)O[C@@H]4COP(=O)(O)O[C@@H]2[C@@H]3O)c(=O)[nH]1 [cGAMP, cyclic guanosine monophosphate-adenosine monophosphate]
[1]
  mice with complete tumor remission / complete response: 2 out of 10
STING pathway in BMDMs
  STING or IRF-3 phosphorylation (western blot): no STING or IRF-3 phosphorylation
